Measurements published in patent publication US20260000656A1, “ANTIFUNGAL AGENTS WITH ENHANCED ACTIVITY IN ACIDIC PH” (Scynexis, Inc., priority 2017, published 2026).
Each block holds one molecule with its values, some of them ahead of it.

Experiments:
VVC = details: oral fluconazole, share of VVC cases, Diflucan label (May 2011); cited from earlier work
[1] = Plasma, vaginal secretion and vaginal tissue exposure after oral administration in mice; format: in vivo; details: for AUC(0-t): po
Description: Female CD-1 mice (n=3/time point/dose group) were given SCY-078 via oral gavage for either one, two, or eight total doses ranging from 10 to 80 mg/kg, consisting of QD (once per day) and BID (twice per day) dose regimens, with and without loading doses, as follows: • QD (Day 1): 10, 20, 40, 80 mg/kg • BID (Day 1): 10/5, 20/10, 40/20, 80/40 mg/kg • BID repeat dose (Days 1-4): 10/5, 20/10 40/20, 80/40 mg/kg on Day 1; 5, […] mg/kg BID on Days 2 to 4
Blood, vulvo-vaginal tissue and vaginal secretions were collected pre-dose, and at 1, 2, 4, 6, 8, 12, 18 and 24 hours post-dose, following the final dose administered per group. Samples were then processed, extracted via protein precipitation and analyzed for SCY-078 via LC MS/MS.

clinical = format: in vivo, human; details: female, human, in vivo, po, 300 mg
Description: A Phase 2 study was conducted to evaluate the safety, efficacy, tolerability, and pharmacokinetics of five dose regimens of oral SCY-078 (administered as the citrate salt) compared to oral fluconazole in adult, female patients with moderate-to-severe acute VVC (defined as having a signs and symptoms (S&S) score of 7 or greater). A total of 186 intent-to-treat (ITT) patients were randomized into six different treatment arms as follows: five different dosing regimens of oral SCY-078 and one oral fluconazole treatment arm. The modified intent-to-treat (mITT) population was used for efficacy analysis and included 153 patients with culture-confirmed Candida spp. vaginal infection (positive microscopic examination of vaginal secretions showing yeast, vaginal pH≤4.5) at baseline. The doses of SCY-078 tested ranged from 600 mg to 1800 mg total dose administered over the duration of treatment, and the durations of treatment were 1 or 3 days:
The primary efficacy endpoint was clinical cure, which according to current FDA guidance is defined as complete resolution (score=0) of all signs and symptoms at the Day 10 Test-of-Cure visit without the need of additional antifungal therapy. Secondary endpoints included mycological eradication (negative culture) and a composite endpoint including both clinical cure and mycological eradication. Response was also evaluated based on the percent of patients achieving a noticeable improvement in their signs and symptoms, either by achieving an S&S score of 0 or 1 or an absolute change (reduction) in mean composite S&S score from baseline. An S&S score is based on a patient's reported symptoms (burning, itching, and irritation) and investigator-assessed signs (swelling, redness, and excoriations); each sign and symptom can be absent, mild, moderate, or severe, with a corresponding score from 0 to 3; the total composite scale is 0 to 18 points. Response was further evaluated by assessing the number of patients who received rescue antifungal therapy. Patients were assessed at the Day 10 Test-of-Cure visit and also at a Day 25 Follow-Up visit. The study was not designed to achieve statistically significant differences in any of the evaluated endpoints.

Structure (SMILES): OC(Cn1cncn1)(Cn1cncn1)c1ccc(F)cc1F [Fluconazole, reference compound]
therapeutic cure (complete resolution of signs and symptoms, negative KOH examination and negative culture) (VVC): approximately half

AUC(0-t) ([1]; female, CD-1, mouse, plasma, 10 mg/kg, oral gavage, QD 10 mg/kg (Day 1), read-out: AUC0-24 Plasma): 8330 ng·h/mL
AUC(0-t) ([1]; female, CD-1, mouse, plasma, 20 mg/kg, oral gavage, QD 20 mg/kg (Day 1), read-out: AUC0-24 Plasma): 19700 ng·h/mL
AUC(0-t) ([1]; female, CD-1, mouse, plasma, 40 mg/kg, oral gavage, QD 40 mg/kg (Day 1), read-out: AUC0-24 Plasma): 42300 ng·h/mL
AUC(0-t) ([1]; female, CD-1, mouse, plasma, 80 mg/kg, oral gavage, QD 80 mg/kg (Day 1), read-out: AUC0-24 Plasma): 75500 ng·h/mL
AUC(0-t) ([1]; female, CD-1, mouse, plasma, BID regimen, 10/5-80/40 mg/kg, read-out: AUC0-24 in plasma, range over doses): 7470 to 101000 ng·h/mL
AUC(0-t) ([1]; female, CD-1, mouse, plasma, BID repeat dose regimen (Days 1-4), read-out: AUC0-24 in plasma, range over doses): 7470 to 101000 ng·h/mL
AUC(0-t) ([1]; female, CD-1, mouse, plasma, QD regimen, 10-80 mg/kg, read-out: AUC0-24 in plasma, range over doses): 8330 to 75500 ng·h/mL
AUC(0-t) ([1]; female, CD-1, mouse, plasma, oral gavage, BID 10/5 mg/kg (Day 1), read-out: AUC0-24 Plasma): 7470 ng·h/mL
AUC(0-t) ([1]; female, CD-1, mouse, plasma, oral gavage, BID 20/10 mg/kg (Day 1), read-out: AUC0-24 Plasma): 16600 ng·h/mL
AUC(0-t) ([1]; female, CD-1, mouse, plasma, oral gavage, BID 40/20 mg/kg (Day 1), read-out: AUC0-24 Plasma): 46500 ng·h/mL
AUC(0-t) ([1]; female, CD-1, mouse, plasma, oral gavage, BID 80/40 mg/kg (Day 1), read-out: AUC0-24 Plasma): 101000 ng·h/mL
AUC(0-t) ([1]; female, CD-1, mouse, plasma, oral gavage, BID repeat-dose 10/5 mg/kg (Days 1-4), read-out: AUC0-24 Plasma): 5120 ng·h/mL
AUC(0-t) ([1]; female, CD-1, mouse, plasma, oral gavage, BID repeat-dose 20/10 mg/kg (Days 1-4), read-out: AUC0-24 Plasma): 14600 ng·h/mL
AUC(0-t) ([1]; female, CD-1, mouse, plasma, oral gavage, BID repeat-dose 40/20 mg/kg (Days 1-4), read-out: AUC0-24 Plasma): 53000 ng·h/mL
AUC(0-t) ([1]; female, CD-1, mouse, plasma, oral gavage, BID repeat-dose 80/40 mg/kg (Days 1-4), read-out: AUC0-24 Plasma): 143000 ng·h/mL
AUC(0-t) ([1]; female, CD-1, mouse, vaginal secretion, 10 mg/kg, oral gavage, QD 10 mg/kg (Day 1), read-out: AUC0-24 Vaginal Secretion): 1320 ng·h/mL
AUC(0-t) ([1]; female, CD-1, mouse, vaginal secretion, 20 mg/kg, oral gavage, QD 20 mg/kg (Day 1), read-out: AUC0-24 Vaginal Secretion): 1870 ng·h/mL
AUC(0-t) ([1]; female, CD-1, mouse, vaginal secretion, 40 mg/kg, oral gavage, QD 40 mg/kg (Day 1), read-out: AUC0-24 Vaginal Secretion): 4410 ng·h/mL
AUC(0-t) ([1]; female, CD-1, mouse, vaginal secretion, 80 mg/kg, oral gavage, QD 80 mg/kg (Day 1), read-out: AUC0-24 Vaginal Secretion): 12300 ng·h/mL
AUC(0-t) ([1]; female, CD-1, mouse, vaginal secretion, oral gavage, BID 10/5 mg/kg (Day 1), read-out: AUC0-24 Vaginal Secretion): 1550 ng·h/mL
AUC(0-t) ([1]; female, CD-1, mouse, vaginal secretion, oral gavage, BID 20/10 mg/kg (Day 1), read-out: AUC0-24 Vaginal Secretion): 4210 ng·h/mL
AUC(0-t) ([1]; female, CD-1, mouse, vaginal secretion, oral gavage, BID 40/20 mg/kg (Day 1), read-out: AUC0-24 Vaginal Secretion): 10600 ng·h/mL
AUC(0-t) ([1]; female, CD-1, mouse, vaginal secretion, oral gavage, BID 80/40 mg/kg (Day 1), read-out: AUC0-24 Vaginal Secretion): 17800 ng·h/mL
AUC(0-t) ([1]; female, CD-1, mouse, vaginal secretion, oral gavage, BID repeat-dose 10/5 mg/kg (Days 1-4), read-out: AUC0-24 Vaginal Secretion): 4320 ng·h/mL
AUC(0-t) ([1]; female, CD-1, mouse, vaginal secretion, oral gavage, BID repeat-dose 20/10 mg/kg (Days 1-4), read-out: AUC0-24 Vaginal Secretion): 8630 ng·h/mL
AUC(0-t) ([1]; female, CD-1, mouse, vaginal secretion, oral gavage, BID repeat-dose 40/20 mg/kg (Days 1-4), read-out: AUC0-24 Vaginal Secretion): 38800 ng·h/mL
AUC(0-t) ([1]; female, CD-1, mouse, vaginal secretion, oral gavage, BID repeat-dose 80/40 mg/kg (Days 1-4), read-out: AUC0-24 Vaginal Secretion): 120000 ng·h/mL
AUC(0-t) ([1]; female, CD-1, mouse, vaginal secretions, BID regimen, 10/5-80/40 mg/kg, read-out: AUC0-24 in vaginal secretions, range over doses): 1550 to 17800 ng·h/mL
AUC(0-t) ([1]; female, CD-1, mouse, vaginal secretions, BID repeat dose regimen (Days 1-4), read-out: AUC0-24 in vaginal secretions, range over doses): 4320 to 120000 ng·h/mL
AUC(0-t) ([1]; female, CD-1, mouse, vaginal secretions, QD regimen, 10-80 mg/kg, read-out: AUC0-24 in vaginal secretions, range over doses): 1320 to 12300 ng·h/mL
Kp ([1]; female, CD-1, mouse, vaginal tissue, oral, repeat-dosing, read-out: accumulation in vaginal tissue relative to plasma): > 10
AUC0-24 Vaginal Tissue ([1]; oral gavage, BID 10/5 mg/kg (Day 1)): 24.6 µg·h/g
AUC0-24 Vaginal Tissue ([1]; oral gavage, BID 20/10 mg/kg (Day 1)): 72.9 µg·h/g
AUC0-24 Vaginal Tissue ([1]; oral gavage, BID 40/20 mg/kg (Day 1)): 204 µg·h/g
AUC0-24 Vaginal Tissue ([1]; oral gavage, BID 80/40 mg/kg (Day 1)): 337 µg·h/g
AUC0-24 Vaginal Tissue ([1]; oral gavage, BID repeat-dose 10/5 mg/kg (Days 1-4)): 24.4 µg·h/g
AUC0-24 Vaginal Tissue ([1]; oral gavage, BID repeat-dose 20/10 mg/kg (Days 1-4)): 71.6 µg·h/g
AUC0-24 Vaginal Tissue ([1]; oral gavage, BID repeat-dose 40/20 mg/kg (Days 1-4)): 275 µg·h/g
AUC0-24 Vaginal Tissue ([1]; oral gavage, BID repeat-dose 80/40 mg/kg (Days 1-4)): 1798 µg·h/g
AUC0-24 Vaginal Tissue ([1]; oral gavage, QD 10 mg/kg (Day 1)): 26.7 µg·h/g
AUC0-24 Vaginal Tissue ([1]; oral gavage, QD 20 mg/kg (Day 1)): 53.6 µg·h/g
AUC0-24 Vaginal Tissue ([1]; oral gavage, QD 40 mg/kg (Day 1)): 187 µg·h/g
AUC0-24 Vaginal Tissue ([1]; oral gavage, QD 80 mg/kg (Day 1)): 171 µg·h/g
AUC(0-t) (clinical): 3 to 8 µM·h
Cmax (clinical): 200 to 500 nM
Structure (SMILES): CC(C)[C@@H](C)[C@@]1(C)CC[C@]2(C)[C@H]3CC[C@@H]4[C@@]5(COC[C@]4(C)[C@@H](OC[C@](C)(N)C(C)(C)C)[C@H](n4ncnc4-c4ccncc4)C5)C3=CC[C@@]2(C)[C@@H]1C(=O)O [SCY-078]
